Data reported in patent publication US4798896A, “Antipsychotic gamma-carboline N-oxides” (American Home Products Corporation, priority 1988, dated 1989).

Experiments:
[1] = test system: trained male CD rats (Charles River); test: conditioned avoidance, shelf-jump response test in trained rats; type: in vivo, rat
Text: The antipsychotic/anxiolytic properties of the pyridine N-oxides of this invention were established by standard pharmacologically accepted procedures involving conditioned avoidance studies in which trained male CD rats (Charles River), 400-500 gm body weight, are exposed to a fifteen second warning tone (conditional stimulus) continued for an additional fifteen seconds accompanied by electric shock. The rates can avoid the electric shock by jumping to an exposed shelft (shelf-jump response). A response during the initial warning tone is considered to be an avoidance response while a response during shock delivery is considered an escape response. The avoidance response is determined and expressed as a percentage of total trials from an appropriate number of trials. The shelf-jump response test procedure follows that of Herman et al., Comm. in Psychopharm., 3, 165 (1979).

[2] = target: T1, serotonin-2 receptors (5HT2) (Rattus norvegicus, UniProt P14842); test: serotonin-2 (5HT2) receptor binding in brain cortical tissue; conditions: for inhibition at 1 µM: read-out: % Inhibition of serotonin 5HT2 binding, at 1 μM
T1 construct: employing brain cortical tissue; from tissue; host or cells: brain cortical tissue
T1 sequence (P14842 whole entry): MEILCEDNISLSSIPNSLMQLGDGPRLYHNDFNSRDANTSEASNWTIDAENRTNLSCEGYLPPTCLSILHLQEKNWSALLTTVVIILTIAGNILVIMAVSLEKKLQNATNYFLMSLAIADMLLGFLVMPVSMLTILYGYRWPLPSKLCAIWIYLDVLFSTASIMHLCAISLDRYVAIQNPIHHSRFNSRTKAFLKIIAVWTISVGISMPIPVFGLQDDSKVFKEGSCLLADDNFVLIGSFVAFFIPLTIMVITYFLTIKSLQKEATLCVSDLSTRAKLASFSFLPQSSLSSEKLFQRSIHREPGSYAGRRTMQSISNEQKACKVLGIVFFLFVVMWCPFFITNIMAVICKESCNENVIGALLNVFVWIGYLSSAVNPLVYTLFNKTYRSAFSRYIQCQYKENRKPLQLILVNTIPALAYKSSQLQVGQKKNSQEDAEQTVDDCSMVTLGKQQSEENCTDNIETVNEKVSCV

[3] = target: T2, dopamine receptors (limbic D2) (Rattus norvegicus, UniProt P61169); test: limbic (accumbens) D2 binding, 3H-spiroperidol; conditions: limbic brain tissue
T2 construct: from tissue
T2 sequence (P61169 whole entry): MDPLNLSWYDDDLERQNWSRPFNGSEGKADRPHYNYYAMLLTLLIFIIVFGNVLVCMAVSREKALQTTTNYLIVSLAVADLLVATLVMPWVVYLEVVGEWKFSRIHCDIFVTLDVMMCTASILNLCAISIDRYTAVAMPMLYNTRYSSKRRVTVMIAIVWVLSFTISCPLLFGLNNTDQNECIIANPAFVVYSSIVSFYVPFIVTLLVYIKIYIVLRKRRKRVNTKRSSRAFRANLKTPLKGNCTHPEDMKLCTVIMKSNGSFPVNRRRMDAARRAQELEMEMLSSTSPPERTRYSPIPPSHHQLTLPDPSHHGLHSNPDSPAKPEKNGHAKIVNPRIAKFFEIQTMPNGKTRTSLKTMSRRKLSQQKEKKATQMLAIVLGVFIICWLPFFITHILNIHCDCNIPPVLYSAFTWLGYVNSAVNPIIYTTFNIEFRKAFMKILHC
Experimental: (§1) Following the procedures of Fields et al., Brain Res., 136, 578 (1977) and Yamamura et al., Neurotransmitter Receptor Binding, Raven Press, N.Y. (1978), homogenized limbic brain tissue is incubated with ^3 H-spiroperidol and various concentrations of test compound, filtered and washed and shaken with Hydrofluor scintillation cocktail (National Diagnostics) and counted in a Packard 460 CD scintillation counter. Binding in the presence of test compound is expressed as percent of specific binding [total binding less binding in the presence of 1 μM (+) butaclamol]. This limbic D2 binding procedure assesses a compounds potential binding at dopamine receptors as a predictor of antipsychotic activity.

[4] = detection of metabolite in monkey urine and plasma after administration of the parent drug; type: in vivo; conditions: intragastric 4 mg/kg or iv 1 mg/kg of parent drug
Text: (§2) By comparative analysis, the compounds of this invention were discovered to be one major form of several metabolites of the compounds disclosed in U.S. Pat. Nos. 4,636,563 and 4,672,117. This may be illustrated by consideration of the metabolic conversion of the compound of claim 13 of U.S. Pat. No. 4,636,563. Oral administration of the drug 8-fluoro-2,3,4,5-tetrahydro-2-[3-(3-pyridinyl)propyl]-1H-pyrido[4,3-b]indole to rats at a dose of 100 milligrams per kg followed by collectiion of urine and isolation of metabolites by column chromatography and selective solubilization in organic solvents yielded several metabolites. […] This metabolic pathway is consistent with the other anti-psychotic-anxilytic agents disclosed and claimed in U.S. Pat. Nos. 4,636,563 and 4,672,117.

[5] = isolation of metabolites from rat urine after oral administration of the parent drug; type: in vivo; conditions: oral administration of parent drug at 100 mg/kg
Text: as §2

[6] = overall appraisal from conditioned avoidance, serotonin binding inhibition and dopamine receptor binding inhibition procedures; conditions: tertiary nitrogen oxides of the parent compared
Experimental: as §1

Structure (SMILES) | inhibition at 1 µM [2] [%] | inhibition at 1 µM [3] [%] | other results
Fc1ccc2[nH]c3c(c2c1)CN(CCCc1cccnc1)CC3 [A, 8-fluoro-2,3,4,5-tetrahydro-2-[3-(3-pyridinyl)propyl]-1H-piperidino(4,3-b]indole, reference compound] | 78 | 93 | Inhibition of shelf-jump ([1]; 20 mg/kg): 73%
NCCc1ccc(O)c(O)c1 [dopamine, reference compound] |  |  | activity at serotonin-2 receptor [2]: inactive

Continued, in another order:

inhibition at 1 µM [2] [%] | inhibition at 1 µM [3] [%] | Structure (SMILES) | other results
18 | 4 | [O-][n+]1cccc(CCC[N+]2([O-])CCc3[nH]c4ccc(F)cc4c3C2)c1 (stereo not drawn) [B, 8-Fluoro-2,3,4,5-tetrahydro-2-[3-(3-pyridinyl)propyl]-1H-piperidino[4,3-b]indole N,2-dioxide] | 
18 | 0 | [O-][N+]1(CCCc2cccnc2)CCc2[nH]c3ccc(F)cc3c2C1 (stereo not drawn) [C, 8-Fluoro-2,3,4,5-tetrahydro-2-[3-(3-pyridinyl)propyl]-1H-piperidino[4,3-b]indole 2-oxide] | Inhibition of shelf-jump ([1]; result in words, dose not given): not significant
68 | 66 | [O-][n+]1cccc(CCCN2CCc3[nH]c4ccc(F)cc4c3C2)c1 [D, 8-Fluoro-2,3,4,5-tetrahydro-2-[3-(3-pyridinyl)propyl]-1H-piperidino[4,3-b]indole N-oxide] | Inhibition of shelf-jump ([1]; 40 mg/kg): 16%; detection as metabolite in urine and plasma [4]: detected in monkey urine and plasma; metabolite of the parent drug in urine [5]: one of the major metabolites; antipsychotic/anxiolytic activity [6]: meaningful antipsychotic/anxiolytic activity
